Experimental data from patent US6943034B1, “Combinatorial strategies for polymer synthesis” (Affymetrix, Inc., priority 1991, dated 2005).
Where no end group is shown, it is not given here. [ ]: non-standard residue; d: D form.

Tests used:
[1] = test system: complementary base sequence 5′GCGTCGGC-F (SEQ ID NO:5); test: Channel Matrix Hybridization Assay; type: binding; conditions: 10 nM target, 15° C., one hour; scanned in 6× SSPE buffer; result in words
Text: A center region of a two by three inch slide was derivatized with bis(2-Hydroxyethyl) aminopropyltriethoxy silane. Six nucleosides were then coupled to the entire reaction region using a synthesis process consisting of deprotection, coupling, and oxidation steps for each monomer applied. These first six nucleosides were coupled in a reaction region defined by a 0.84 inch diameter circular well in an aluminum template clamped to the two by three inch slide.
The seventh and eighth monomers were applied to the substrate by flowing monomer solutions through 100 micron channels in an etched silicon channel block (employed in Example C above). The seventh base was coupled along the long axis (vertical) of the two-inch by three-inch slide, and the eighth base perpendicular to the seventh, along the short axis (horizontal) of the slide. This defined an active matrix region of 1.28 by 1.28 cm having a density of 2,500 reaction regions per square centimeter.
The complete octamer synthesized at the channel intersections formed by the seventh and eighth coupling steps had the following sequence: […]
After completion of the synthesis process, cleavage of exocyclic amines was performed by immersion of the reaction region in concentrated ammonium hydroxide. […] Finally, the reaction region was then scanned using a laser fluorescence detection system while immersed in the buffer.

[2] = test system: Herz antibody 3E7; test: staining of substrate-bound peptide array with FITC-labelled antibodies, fluorescence intensity; type: binding; conditions: for overall intensity ratios YGGFL:YpGFL:pGGFL:ppGFL: fluorescence intensity of all sites on the slide after staining with FITC-labelled Herz antibody 3E7, ratio relative to ppGFL = 1.0; for fluorescence intensity of peptide sites (FIG. 19): slide stained with FITC-labelled Herz antibody 3E7, result in words
Text: The system was used to synthesize four distinct peptides: YGGFL (SEQ ID NO:1), YpGFL (SEQ ID NO:2), pGGFL (SEQ ID NO:3), and ppGFL (SEQ ID NO:6) (the abbreviations are included in Stryer, Biochemistry, Third Ed. (1988), previously incorporated herein by reference; lower case letters indicate D-optical isomers and upper case letters indicate L-optical isomers). An entire glass substrate was derivatized with TBOC-protected aminopropyltriethoxysilane, deprotected with TFA, coated with FMOC-protected caproic acid (a linker), deprotected with piperidine, and coated with FMOC-protected Glycine-Phenylalanine-Leucine (GFL).
This FMOC-GFL-coated slide was sealed to the channel block, and all 10 grooves were deprotected with piperdine in DMF. After washing the grooves, FMOC Glycine (G) was injected in the odd grooves, and FMOC d-Proline (p) was injected in the even grooves. After a two-hour coupling time, using standard coupling chemistry, all grooves were washed with DMF. The grooves were vacuum dried, the block removed and rotated 90 degrees. After resealing, all grooves were deprotected with piperdine in DMF and washed. FMOC Tyrosine (Y) was injected in the odd grooves, and FMOC p in the even grooves. After coupling the grooves were washed and vacuum dried. Accordingly, 25 regions of each of the compounds YGGFL (SEQ ID NO:1), YpGFL (SEQ ID NO:2), pGGFL (SEQ ID NO:3), and ppGFL (SEQ ID NO:6) were synthesized on the substrate. The substrate was removed and stained with FITC-labelled antibodies (Herz antibody 3E7).

Substance | brightness (fluorescence) indicating hybridization with fluoresceinated target chain (FIG. 21) [1] | overall intensity ratios YGGFL:YpGFL:pGGFL:ppGFL [2] | fluorescence intensity of peptide sites (FIG. 19) [2]
Substrate—(3′)CGCAGCCG(5′) [full octamer] | brightest regions | – | –
ppGFL ([dP][dP]GFL; also: substrate-bound) | – | 1.0 | near background levels
YpGFL (Y[dP]GFL; also: substrate-bound) | – | 1.5 | –
YGGFL | – | 1.7 | most intense
pGGFL ([dP]GGFL; also: substrate-bound) | – | 1.1 | near background levels
